Assay results: patent publication US11643411B2 (priority 2015, dated 2023)
Counter-ions that a name gives are not always drawn. Like-named read-outs stand apart in the source and are kept apart here. Marks after values point to notes of the source that are not given here.

Key:
[1] = molecular target: T1, hERG channel (Homo sapiens, UniProt Q12809); assay: hERG potassium channel inhibition test (automatic patch clamp); type: cell-based; conditions: 10 μM, hERG channel-stably expressing CHO cells, tail current
T1 construct: host or cells: CHO cells
Procedure: The test was performed with Port-a-Patch automatic patch clump apparatus (Nanion Technologies) using hERG channel-stably expressing CHO cells (purchased from Channelopathy Foundation). The membrane potential of the cells was maintained at −80 mV, then there were applied a depolarization pulse at +20 mV for 1.5 seconds, and a following test pulse at −50 mV for 1.5 seconds at a frequency of 1 time per 10 seconds, and the hERG current was confirmed as a tail current induced by the test pulse. The test compound was dissolved in an extracellular fluid (137 mM NaCl, 4 mM KCl, 1.8 mM CaCl2, 1 mM MgCl2, 10 mM D(+)-glucose, 10 mM HEPES, pH 7.4), and the solution was refluxed at room temperature for 5 minutes. The inhibition ratio was obtained from the ratio of the tail current value observed after the compound was applied based on the tail current value observed before the compound was applied, which was taken as 100%.

[2] = molecular target: T2, human opioid μ receptor (Homo sapiens, UniProt P35372); assay: Opioid receptor function test (Lance Ultra cAMP Kit), μ receptor; type: cell-based
T2 construct: host or cells: CHO cells

[3] = test system: C57BL/6N male mice; assay: Mouse elevated plus maze test; type: in vivo; conditions: subcutaneous, dose not stated (FIGS. 3 to 5)
Procedure: For the test, 5 to 6 weeks old C57BL/6N male mice were used. On a plus maze apparatus consisting of a wall-less running route (open arm, width 6 cm, length 30 cm) and a running route with a wall (closed arm, width 6 cm, length 30 cm, height of wall 15 cm), and having a height of 40 cm, a mouse was put so as to be directed to the running route with a wall, and allowed to spontaneously enter into the plus maze. Each test substance was dissolved in saline or 0.005 N HCl in saline, and subcutaneously administered on the back 30 minutes before the start of the test. At the time of the start of the test, video recording with a video camera was started, the time at which the mouse entered into the plus maze is considered to be the start of the test, and exploratory behavior was recorded for 5 minutes. On the basis of the video image, staying time in the running routes were determined, and wall-less running route staying time ratio (%) was calculated.

[4] = molecular target: T3, human opioid κ receptor (Homo sapiens, UniProt P41145); assay: cell-based
T3 construct: host or cells: CHO cells

[5] = test system: OBX rats; assay: Hyperemotional reaction inhibition test using olfactory bulbectomized (OBX) rat; type: in vivo
Procedure: According to the method of Saitoh et al. (Saitoh A, Yamada M, Yamada M, Takahashi K, Yamaguchi K, Murasawa H, Nakatani A, Tatsumi Y, Hirose N, and Kamei J: Antidepressant-like effects of the delta-opioid receptor agonist SNC80 ((+)-4-[(alphaR)-alpha-[(2S,5R)-2,5-dimethyl-4-(2-propenyl)-1-piperazinyl]-(3-methoxyphenyl)methyl]-N,N-diethylbenzamide) in an olfactory bulbectomized rat model, Brain Res., 2008, 1208160-169), OBX rats were prepared by extracting the rat olfactory bulbs, and then breeding the rats in an isolated circumstance. Hyperemotional reaction was evaluated on the day 14 after the surgical operation and before the division into groups, and 2 hours after the administration on the days 1, 4, 7, 10, and 14 of the administration period according to the hyperemotional reaction evaluation criteria prepared by Gomita et al. (Gomita et al., Behavioral pharmacological and electroencephalographical studies of 7-chloro-1-methyl-5-phenyl-1H-1,5-benzodiazepine-2,4-(3H,5H:)-dione (Clobazam), Folia Pharmacologica Japonica, 82, 267 (1983)). The drug was subcutaneously administered once a day continuously over 14 days. As a positive control drug, fluoxetine, which is a selective serotonin reuptake inhibitor (SSRI), was used. As the solvent, a 1% cyclodextrin (CD) was used.

[6] = test system: SD male rats; assay: Rat cerebral infarction-induced overactive bladder model (cystometry); type: in vivo
Procedure: A transient middle cerebral artery occlusion model was prepared by using 8 weeks old SD male rats under isoflurane inhalation anesthesia. On the next day, the cervix was slightly cut open again under the isoflurane inhalation anesthesia, and a catheter for administration was fixed in the jugular vein, and led to the back. A cystometry operation was also performed, and the other end of a cannula inserted into the bladder was led to the back, and connected to a cannula swivel.
On the day 4 after the cerebral ischemia operation, cystometry was performed under no anesthesia and with no restraint. Intravesical pressure was measured for the stable period, then a medium was intravenously administered, and the value of the pressure was measured over about 30 minutes as a value before test substance administration. Then, the test substance was cumulatively and intravenously administered from the lowest dose at intervals of about 30 minutes, and the value was measured for about 30 minutes after each administration. For the rats determined to show pollakiuria (urination interval was 10 minutes or shorter) in the measurement before the administration, static intravesical pressure, pressure at the time of urination, urination interval, and single urination amount were measured at each time point.

[7] = read-out: μ receptor Emax, starred: reaction rate at the maximum concentration (reference value)
[8] = read-out: κ receptor Emax, starred: reaction rate at the maximum concentration (reference value)

T2 sequence (P35372 whole entry): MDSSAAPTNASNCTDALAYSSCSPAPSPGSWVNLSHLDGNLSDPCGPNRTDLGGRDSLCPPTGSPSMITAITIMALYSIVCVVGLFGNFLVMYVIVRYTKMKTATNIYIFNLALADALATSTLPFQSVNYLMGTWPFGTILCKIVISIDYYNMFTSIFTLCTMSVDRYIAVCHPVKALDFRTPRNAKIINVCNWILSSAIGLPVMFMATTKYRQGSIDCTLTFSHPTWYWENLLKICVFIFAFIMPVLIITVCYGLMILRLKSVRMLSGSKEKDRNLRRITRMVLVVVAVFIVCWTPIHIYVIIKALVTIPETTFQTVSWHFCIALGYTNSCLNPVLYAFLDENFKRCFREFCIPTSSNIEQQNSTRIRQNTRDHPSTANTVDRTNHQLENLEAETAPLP
T3 sequence (P41145 whole entry): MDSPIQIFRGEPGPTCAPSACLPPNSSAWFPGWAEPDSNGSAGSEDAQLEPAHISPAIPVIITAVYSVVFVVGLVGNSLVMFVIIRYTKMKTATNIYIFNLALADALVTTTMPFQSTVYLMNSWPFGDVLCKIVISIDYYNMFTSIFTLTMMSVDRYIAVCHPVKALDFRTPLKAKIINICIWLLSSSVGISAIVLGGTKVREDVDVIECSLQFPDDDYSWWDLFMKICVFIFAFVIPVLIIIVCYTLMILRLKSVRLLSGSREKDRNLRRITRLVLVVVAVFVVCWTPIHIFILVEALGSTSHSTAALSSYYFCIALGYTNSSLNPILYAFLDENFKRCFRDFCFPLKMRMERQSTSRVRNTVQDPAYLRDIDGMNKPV
T1 sequence (Q12809 whole entry): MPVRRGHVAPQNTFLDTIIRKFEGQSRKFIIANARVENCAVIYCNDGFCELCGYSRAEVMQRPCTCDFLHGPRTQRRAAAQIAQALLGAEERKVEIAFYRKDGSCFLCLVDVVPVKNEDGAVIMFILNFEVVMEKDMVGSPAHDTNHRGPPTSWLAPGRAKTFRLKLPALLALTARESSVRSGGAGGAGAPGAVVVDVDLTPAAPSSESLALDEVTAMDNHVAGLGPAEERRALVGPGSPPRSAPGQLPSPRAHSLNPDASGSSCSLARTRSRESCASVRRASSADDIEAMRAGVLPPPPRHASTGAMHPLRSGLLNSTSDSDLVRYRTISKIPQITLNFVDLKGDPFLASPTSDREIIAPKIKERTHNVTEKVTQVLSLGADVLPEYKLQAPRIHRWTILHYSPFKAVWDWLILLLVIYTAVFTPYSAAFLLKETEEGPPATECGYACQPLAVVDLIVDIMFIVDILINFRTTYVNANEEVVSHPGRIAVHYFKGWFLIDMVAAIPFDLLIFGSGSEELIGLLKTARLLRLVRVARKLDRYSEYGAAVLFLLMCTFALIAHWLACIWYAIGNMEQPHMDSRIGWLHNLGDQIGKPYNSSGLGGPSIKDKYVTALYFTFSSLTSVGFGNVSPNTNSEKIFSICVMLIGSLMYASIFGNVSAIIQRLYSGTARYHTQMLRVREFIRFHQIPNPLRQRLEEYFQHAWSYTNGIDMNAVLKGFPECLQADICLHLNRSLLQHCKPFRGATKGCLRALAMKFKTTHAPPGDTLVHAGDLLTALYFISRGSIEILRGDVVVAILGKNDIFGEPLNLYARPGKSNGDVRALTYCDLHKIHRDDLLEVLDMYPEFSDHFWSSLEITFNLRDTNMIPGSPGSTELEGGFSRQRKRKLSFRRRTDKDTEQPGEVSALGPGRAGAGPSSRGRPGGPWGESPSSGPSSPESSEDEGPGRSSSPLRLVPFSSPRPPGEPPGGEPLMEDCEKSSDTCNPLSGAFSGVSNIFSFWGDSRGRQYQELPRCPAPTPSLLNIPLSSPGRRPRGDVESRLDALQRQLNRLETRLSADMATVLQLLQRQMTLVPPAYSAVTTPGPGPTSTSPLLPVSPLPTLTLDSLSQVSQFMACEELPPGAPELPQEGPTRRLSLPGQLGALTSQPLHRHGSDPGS

Which “hERG channel inhibitory action” value [1] does the source give for `O=C(c1cccc[n+]1[O-])N1C[C@H]2C[C@@]34CC[C@@H]1[C@@H]2[C@@]31CCN(CC2CC2)[C@@H]4Cc2ccc(O)cc21` [Example 1, 2-((1S,3aR,5aS,6R,11bR,11cS)-14-(cyclopropylmethyl)-10-hydroxy-2,3,3a,4,5,6,7,11c-octahydro-1H-6,11b-(epiminoethano)-1,5a-methanonaphtho[1,2-e]indole-3-carbonyl)pyridine 1-oxide] here?
The value was less than 50%.

What about the Emax [2, 7] of the same molecule?
The Emax was 8.3%.

How did the “hERG channel inhibitory action” value [1] turn out when `O=C(c1ccc[nH]c1=O)N1C[C@H]2C[C@@]34CC[C@@H]1[C@@H]2[C@@]31CCN(CC2CC2)[C@@H]4Cc2ccc(O)cc21` [Example 3, 3-((1S,3aR,5aS,6R,11bR,11cS)-14-(cyclopropylmethyl)-10-hydroxy-2,3,3a,4,5,6,7,11c-octahydro-1H-6,11b-(epiminoethano)-1,5a-methanonaphtho[1,2-e]indole-3-carbonyl)pyridin-2(1H)-one] was run?
The value was less than 50%.

What about the “wall-less running route staying time ratio” value [3] of the same molecule?
The value was “showed a tendency of increasing”.

How did the Emax [2, 7] turn out when `O=C(c1ccc[n+]([O-])c1)N1C[C@H]2C[C@@]34CC[C@@H]1[C@@H]2[C@@]31CCN(CC2CC2)[C@@H]4Cc2ccc(O)cc21` [Example 4, 3-((1S,3aR,5aS,6R,11bR,11cS)-14-(cyclopropylmethyl)-10-hydroxy-2,3,3a,4,5,6,7,11c-octahydro-1H-6,11b-(epiminoethano)-1,5a-methanonaphtho[1,2-e]indole-3-carbonyl)pyridine 1-oxide] was run?
The Emax was 5.5%.

How did the Emax [4, 8] turn out when `Cn1cccc(C(=O)N2C[C@H]3C[C@@]45CC[C@@H]2[C@@H]3[C@@]42CCN(CC3CC3)[C@@H]5Cc3ccc(O)cc32)c1=O` [Example 6, 3-((1S,3aR,5aS,6R,11bR,11cS)-14-(cyclopropylmethyl)-10-hydroxy-2,3,3a,4,5,6,7,11c-octahydro-1H-6,11b-(epiminoethano)-1,5a-methanonaphtho[1,2-e]indole-3-carbonyl)-1-methylpyridin-2(1H)-one] was run?
Its Emax is 3.2%.

How did the Emax [4, 8] turn out when `O=C(c1cccc(=O)[nH]1)N1C[C@H]2C[C@@]34CC[C@@H]1[C@@H]2[C@@]31CCN(CC2CC2)[C@@H]4Cc2ccc(O)cc21` [Example 7, 6-((1S,3aR,5aS,6R,11bR,11cS)-14-(cyclopropylmethyl)-10-hydroxy-2,3,3a,4,5,6,7,11c-octahydro-1H-6,11b-(epiminoethano)-1,5a-methanonaphtho[1,2-e]indole-3-carbonyl)pyridin-2(1H)-one] was run?
Its Emax is -0.9%.

And the “hyperemotional reactions compared with the sham surgery group” value ([5]; 0.1 mg/kg s.c. once a day, on the day 7 of the administration period)?
Its value is “restored the condition even to a level comparable to that of the rats of the sham surgery group”.

What about the “hyperemotional reactions compared with the sham surgery group” value ([5]; 1 mg/kg s.c. once a day, on the day 4 of the administration period) of the same molecule?
The value was “restored the condition even to a level comparable to that of the rats of the sham surgery group”.

And the “hERG channel inhibitory action” value [1]?
The value was less than 50%.

What about the “single urination amount (in words)” value ([6]; 0.01 and 0.1 mg/kg i.v.) of the same molecule?
The value was “dose-dependently increasing tendency”.

What about the “urination interval (in words)” value ([6]; 0.01 and 0.1 mg/kg i.v.) of the same molecule?
The value was “dose-dependently increasing tendency”.

What about the “pressure at the time of urination (in words)” value ([6]; at all the doses) of the same molecule?
Its value is “did not affect”.

What about the “static intravesical pressure (in words)” value ([6]; at all the doses) of the same molecule?
Its value is “did not affect”.

For `Cn1cc(C(=O)N2C[C@H]3C[C@@]45CC[C@@H]2[C@@H]3[C@@]42CCN(CC3CC3)[C@@H]5Cc3ccc(O)cc32)ccc1=O` [Example 9, 5-((1S,3aR,5aS,6R,11bR,11cS)-14-(cyclopropylmethyl)-10-hydroxy-2,3,3a,4,5,6,7,11c-octahydro-1H-6,11b-(epiminoethano)-1,5a-methanonaphtho[1,2-e]indole-3-carbonyl)-1-methylpyridin-2(1H)-one], which “hERG channel inhibitory action” value [1] is on record?
The value was less than 50%.

What about the Emax ([2]; ratio to maximum reaction of control drug DAMGO taken as 100%, read-out: μ receptor Emax) of the same molecule?
The Emax was 16%.

And the “wall-less running route staying time ratio” value [3]?
The value was “showed a tendency of increasing”.

`Cn1c(C(=O)N2C[C@H]3C[C@@]45CC[C@@H]2[C@@H]3[C@@]42CCN(CC3CC3)[C@@H]5Cc3ccc(O)cc32)cccc1=O` [Example 10, 6-((1S,3aR,5aS,6R,11bR,11cS)-14-(cyclopropylmethyl)-10-hydroxy-2,3,3a,4,5,6,7,11c-octahydro-1H-6,11b-(epiminoethano)-1,5a-methanonaphtho[1,2-e]indole-3-carbonyl)-1-methylpyridin-2(1H)-one] was tested. Which Emax [4, 8] did it give?
Its Emax is -0.7%.

What about the “hERG channel inhibitory action” value [1] of the same molecule?
Its value is less than 50%.

And the Emax [2, 7]?
The Emax was 6%.

And the “wall-less running route staying time ratio” value [3]?
Its value is “showed a tendency of increasing”.

Which Emax [4, 8] does the source give for `O=C(c1cc[nH]c(=O)c1)N1C[C@H]2C[C@@]34CC[C@@H]1[C@@H]2[C@@]31CCN(CC2CC2)[C@@H]4Cc2ccc(O)cc21` [Example 11, 4-((1S,3aR,5aS,6R,11bR,11cS)-14-(cyclopropylmethyl)-10-hydroxy-2,3,3a,4,5,6,7,11c-octahydro-1H-6,11b-(epiminoethano)-1,5a-methanonaphtho[1,2-e]indole-3-carbonyl)pyridin-2(1H)-one] here?
Its Emax is -2.5%.

Which Emax [4, 8] does the source give for `O=C(c1cc(=O)cc[nH]1)N1C[C@H]2C[C@@]34CC[C@@H]1[C@@H]2[C@@]31CCN(CC2CC2)[C@@H]4Cc2ccc(O)cc21` [Example 14, 2-((1S,3aR,5aS,6R,11bR,11cS)-14-(cyclopropylmethyl)-10-hydroxy-2,3,3a,4,5,6,7,11c-octahydro-1H-6,11b-(epiminoethano)-1,5a-methanonaphtho[1,2-e]indole-3-carbonyl)pyridin-4(1H)-one] here?
Its Emax is 6.7%.

`O=C(c1cc(=O)cco1)N1C[C@H]2C[C@@]34CC[C@@H]1[C@@H]2[C@@]31CCN(CC2CC2)[C@@H]4Cc2ccc(O)cc21` [Example 19, 2-((1S,3aR,5aS,6R,11bR,11cS)-14-(cyclopropylmethyl)-10-hydroxy-2,3,3a,4,5,6,7,11c-octahydro-1H-6,11b-(epiminoethano)-1,5a-methanonaphtho[1,2-e]indole-3-carbonyl)-4H-pyran-4-one] was tested. Which Emax [4, 8] did it give?
The Emax was 0.6%.

For `CCn1cc(C(=O)N2C[C@H]3C[C@@]45CC[C@@H]2[C@@H]3[C@@]42CCN(CC3CC3)[C@@H]5Cc3ccc(O)cc32)ccc1=O` [Example 28, 5-((1S,3aR,5aS,6R,11bR,11cS)-14-(cyclopropylmethyl)-10-hydroxy-2,3,3a,4,5,6,7,11c-octahydro-1H-6,11b-(epiminoethano)-1,5a-methanonaphtho[1,2-e]indole-3-carbonyl)-1-ethylpyridin-2(1H)-one], which Emax ([4]; read-out: κ receptor Emax) is on record?
The Emax was 13%.

With `Cn1cccc(C(=O)N2C[C@H]3C[C@@]45CC[C@@H]2[C@@H]3[C@@]42CCN(CC3CC3)[C@@H]5Cc3ccc(O)cc32)c1=O` [Example 31, 3-((1S,3aR,5aS,6R,11bR,11cS)-14-(cyclopropylmethyl)-10-hydroxy-2,3,3a,4,5,6,7,11c-octahydro-1H-6,11b-(epiminoethano)-1,5a-methanonaphtho[1,2-e]indole-3-carbonyl)-1-methylpyridin-2(1H)-one hydrochloride] as the molecule, how does the Emax ([4]; maximum reaction not reached, at maximum concentration (10 μM), U-69593 = 100%) read?
Its Emax is 3.2* %.
